In patent US10300151B2, “Methods and systems for noninvasive fluorescence-based functional imaging of kidneys” (Board of Regents, The University of Texas System, priority 2015, dated 2019):
Entries after “also recorded” stand apart in the source; their conditions may differ.

How the values were obtained:
kidneys of Balb/c mice [1] = assay: Noninvasive whole-body fluorescence kidney imaging of intact mice after i.v. injection of fluorophore; assay type: in vivo, mouse; conditions: for duration of kidney contrast/visualisation in noninvasive imaging: after i.v. injection; for excretion route: fluorescence from bladder at 65 min / intestines after 10 min p.i.; for skin clearance half-life: observed during 60 min p.i.; for fraction of first phase of skin intensity increase / fraction of second phase of skin intensity increase / skin fluorescence intensity increase half-life, first phase / skin fluorescence intensity increase half-life, second phase: two-phase exponential growth, FIG. 10
Method: Invasive and noninvasive imaging of normal mice, UUO mice and sham mice were performed using the following protocol. The protocol for invasive and noninvasive imaging differed in only in that for invasive imaging, the mouse's kidneys are exposed via removal of the mouse's back skin.
Prior to imaging, hair-removed Balb/c mice were anesthetized using 3% isoflurane. A catheter filled with PBS was inserted into each mouse's tail vein. The mouse, along with its tail vein catheter, was placed in supine position on the stage of fluorescence imaging system, with the mouse's back facing the excitation light and charge-coupled device (CCD) camera.
Fluorescence imaging of the each of mice proceeded as follows. Bright-field and fluorescence images of the each mouse was taken before injection with fluorophores. When its breathing rate decreased to 10-14 times per 15 s, the mouse was injected with 200 μL of a fluorophore solution. The fluorophore solutions used were PBS solutions of either an organic dye (Cy3, Cy7, or IRDye 800CW) or GS-AuNPs. The concentrations of Cy3, Cy7 and IRDye 800CW were 100, 10, and 10 μM, respectively, and these solutions were filtered through a 0.02 μm filter before injection. The solution of NIR-emitting GS-AuNPs contained 10 mg/mL gold atom as determined by inductively coupled plasma mass spectrometry (ICP-MS). Once the designated fluorophore solution was injected, whole body fluorescence images of each mouse were collected consecutively until 60 minutes post-injection. To ensure reproducible results, each mouse's anesthesia status was maintained at constant level before injection of fluorophores. Unlike clinical renographic procedures, no diuretic agents were used, and the animals were not hydrated prior to fluorescence imaging.
The parameters for acquiring the fluorescence images were shown as follows: Cy3, excitation at 550/10 nm, emission at 600/20 nm, exposure time of 2 s, no binning (FIGS. 4, 6, and 7); Cy7, excitation of 710/10 nm, emission of 790/20 nm, exposure time of 5 s, 2×2 binning (FIGS. 5, 8, and 9); IRDye 800CW, excitation of 710/10 nm, emission of 790/20 nm, 2×2 binning, exposure time of 5 s (FIGS. 21 and 55); GS-AuNPs, excitation of 710/10 nm, emission of 830/20 nm; exposure time of 30 s, 2×2 binning (FIGS. 24, 36, and 54).
Regions of interest (ROIs) designated “kidney areas” were defined around the left and right kidneys on the fluorescence image showing high kidney intensity. Four ROIs designated “surrounding tissue areas” were drawn in proximity to the each kidney; the mean values of these four ROIs were considered the “mean intensity of surrounding tissue area” for the respective kidney. The percentage of kidney contrast enhancement was calculated as follows:
[formula] For GS-AuNPs, the ROIs of “skin” were chosen from the back area close to the tail, so as to avoid the influence of bright kidneys. The time-dependent fluorescence intensity of skin (or kidneys) and percentage of kidney contrast enhancement (FIGS. 10-14, 22, 23, 25, 26, 37, 56, and 57). The curves were fitted with exponential functions to generate the kinetics of kidney contrast change or the kinetics of accumulation and clearance of the fluorophores in the skin and kidneys (FIGS. 10, 22, and 23). Deconvolution and parametric analysis of the kidney TFICs were performed using Origin 8 (FIGS. 27-35; Tables 1 and 2). Pathological Analysis

kidneys of Balb/c mice [2] = assay: Invasive fluorescence kidney imaging of skin-removed mice after i.v. injection of fluorophore; assay type: in vivo, mouse; conditions: for time of maximum skin fluorescence intensity: FIG. 26 (Cy7: FIG. 10); for time at which skin fluorescence intensity surpasses left and right kidney intensity: kidneys surgically exposed; for peak skin fluorescence intensity as percentage of maximum kidney fluorescence intensity: kidney fluorescence from invasive imaging data, FIG. 26
Method: Invasive and noninvasive imaging of normal mice, UUO mice and sham mice were performed using the following protocol. The protocol for invasive and noninvasive imaging differed in only in that for invasive imaging, the mouse's kidneys are exposed via removal of the mouse's back skin. […] As shown in panel a, the kidneys are paired bean-shaped organs lying on either side of the vertebral column. The right kidney (RK) of a mouse is usually slightly higher than it left kidney (LK). Since the kidneys locate retroperitoneally against the dorsal body wall, LK (shown in panel b) and RK (shown in panel c) can be exposed once the back skin above the kidneys was removed. The interference of skin on kidney imaging can be avoided in such an invasive way. Prior to imaging, hair-removed Balb/c mice were anesthetized using 3% isoflurane. A catheter filled with PBS was inserted into each mouse's tail vein. The mouse, along with its tail vein catheter, was placed in supine position on the stage of fluorescence imaging system, with the mouse's back facing the excitation light and charge-coupled device (CCD) camera. Fluorescence imaging of the each of mice proceeded as follows. Bright-field and fluorescence images of the each mouse was taken before injection with fluorophores. When its breathing rate decreased to 10-14 times per 15 s, the mouse was injected with 200 μL of a fluorophore solution. The fluorophore solutions used were PBS solutions of either an organic dye (Cy3, Cy7, or IRDye 800CW) or GS-AuNPs. The concentrations of Cy3, Cy7 and IRDye 800CW were 100, 10, and 10 μM, respectively, and these solutions were filtered through a 0.02 μm filter before injection. The solution of NIR-emitting GS-AuNPs contained 10 mg/mL gold atom as determined by inductively coupled plasma mass spectrometry (ICP-MS). Once the designated fluorophore solution was injected, whole body fluorescence images of each mouse were collected consecutively until 60 minutes post-injection. To ensure reproducible results, each mouse's anesthesia status was maintained at constant level before injection of fluorophores. Unlike clinical renographic procedures, no diuretic agents were used, and the animals were not hydrated prior to fluorescence imaging. The parameters for acquiring the fluorescence images were shown as follows: Cy3, excitation at 550/10 nm, emission at 600/20 nm, exposure time of 2 s, no binning (FIGS. 4, 6, and 7); Cy7, excitation of 710/10 nm, emission of 790/20 nm, exposure time of 5 s, 2×2 binning (FIGS. 5, 8, and 9); IRDye 800CW, excitation of 710/10 nm, emission of 790/20 nm, 2×2 binning, exposure time of 5 s (FIGS. 21 and 55); GS-AuNPs, excitation of 710/10 nm, emission of 830/20 nm; exposure time of 30 s, 2×2 binning (FIGS. 24, 36, and 54). Regions of interest (ROIs) designated “kidney areas” were defined around the left and right kidneys on the fluorescence image showing high kidney intensity. Four ROIs designated “surrounding tissue areas” were drawn in proximity to the each kidney; the mean values of these four ROIs were considered the “mean intensity of surrounding tissue area” for the respective kidney. The percentage of kidney contrast enhancement was calculated as follows: [formula] For GS-AuNPs, the ROIs of “skin” were chosen from the back area close to the tail, so as to avoid the influence of bright kidneys. The time-dependent fluorescence intensity of skin (or kidneys) and percentage of kidney contrast enhancement (FIGS. 10-14, 22, 23, 25, 26, 37, 56, and 57). The curves were fitted with exponential functions to generate the kinetics of kidney contrast change or the kinetics of accumulation and clearance of the fluorophores in the skin and kidneys (FIGS. 10, 22, and 23). Deconvolution and parametric analysis of the kidney TFICs were performed using Origin 8 (FIGS. 27-35; Tables 1 and 2). Pathological Analysis

[3] = in mice, blood; cited from earlier work
kidneys of UUO mice = assay: Noninvasive fluorescence renography in unilateral ureter obstruction (UUO) and sham mice; assay type: in vivo, mouse
Text: To obtain unilateral […] obstruction (UUO) mice, male Balb/c mice (6-8 weeks old, with about 20 g) were anesthetized with isoflurane. For each mouse, the left kidney was exposed an incision on the left flank, and the left ureter was obstructed completely near the renal pelvis using a nonabsorbable suture. For mice in the sham group, the left ureter was exposed using the same surgical procedure but ureter ligation was not performed. Female Balb/c mice (8-10 weeks old, weighing about 20 g) were used as normal (non-UUO) mice for other experiments, such as those shown in FIGS. 4-19. The hair on the Balb/c mice was removed using hair removal lotion at least 24 h before the imaging experiments.
Fluorescence imaging of the each of mice proceeded as follows. Bright-field and fluorescence images of the each mouse was taken before injection with fluorophores. […] The solution of NIR-emitting GS-AuNPs contained 10 mg/mL gold atom as determined by inductively coupled plasma mass spectrometry (ICP-MS). Once the designated fluorophore solution was injected, whole body fluorescence images of each mouse were collected consecutively until 60 minutes post-injection. […] Unlike clinical renographic procedures, no diuretic agents were used, and the animals were not hydrated prior to fluorescence imaging. […]

[4] = 0.6 min p.i., noninvasive, N=3, mean±s.d.
[5] = 60 min p.i., noninvasive, N=3, mean±s.d.
[6] = noninvasive, single exponential decay

| fraction of first phase of skin intensity increase (kidneys of Balb/c mice [1]) [%] | fraction of second phase of skin intensity increase (kidneys of Balb/c mice [1]) [%] | skin fluorescence intensity increase half-life, first phase (kidneys of Balb/c mice [1]) [min] | skin fluorescence intensity increase half-life, second phase (kidneys of Balb/c mice [1]) [min] | time of maximum skin fluorescence intensity (kidneys of Balb/c mice [2]) [min p.i.] | time at which skin fluorescence intensity surpasses left and right kidney intensity (kidneys of Balb/c mice [2]; invasive imaging) [min p.i.] | peak skin fluorescence intensity as percentage of maximum kidney fluorescence intensity (kidneys of Balb/c mice [2]) [%] | SMILES | duration of kidney contrast/visualisation in noninvasive imaging (kidneys of Balb/c mice [1]; intact mouse) | excretion route (kidneys of Balb/c mice [1]) | skin clearance half-life (kidneys of Balb/c mice [1]) | other results |
| --- | --- | --- | --- | --- | --- | --- | --- | --- | --- | --- | --- |
| 33.5 | 66.5 | 1.5 | 7.4 | 35 | 13.2 | 95.3 | CCN1C(=CC=CC=CC=CC2=[N+](CCCCCC(=O)O)c3ccc(S(=O)(=O)O)cc3C2(C)C)C(C)(C)c2cc(S(=O)(=O)[O-])ccc21 [Cy7, disulfo-Cy7 carboxylic acid] | less than 10 min | can be excreted into urine through renal clearance; also recorded: can also be excreted through a hepatic route | No clearance of Cy7 from the skin was observed during 60 min p.i. | – |
| – | – | – | – | 25 | – | 75.5±9.3 | CC1(C)C(/C=C/C2=C(Oc3ccc(S(=O)(=O)O)cc3)C(=C/C=C3/N(CCCCS(=O)(=O)O)c4ccc(S(=O)(=O)[O-])cc4C3(C)C)/CCC2)=[N+](CCCCCC(=O)O)c2ccc(S(=O)(=O)O)cc21 [IRDye 800CW, IRDye 800CW carboxylate] | less than 5 min | – | – | percentage contrast enhancement of left kidney (LK) (kidneys of Balb/c mice [1]; [4]): 67.6±7.1%; percentage contrast enhancement of right kidney (RK) (kidneys of Balb/c mice [1]; [4]): 49.9±9.0%; percentage of contrast enhancement, LK (kidneys of Balb/c mice [1]; [5]): −4.7±0.8%; percentage of contrast enhancement, RK (kidneys of Balb/c mice [1]; [5]): −4.8±5.1%; time at which skin fluorescence intensity is halfway to saturation (kidneys of Balb/c mice [1]; noninvasive imaging, FIG. 22): 4.1 min; decay half-life of percentage contrast enhancement, LK (kidneys of Balb/c mice [1]; [6]): 4.2 min; decay half-life of percentage contrast enhancement, RK (kidneys of Balb/c mice [1]; [6]): 4.5 min; elimination half-life (t1/2β) [3]: 58.8 ± 4.8 min; clearance half-life from kidney, LK, first component (kidneys of Balb/c mice [2]; invasive imaging, FIG. 23): 4.3 min; clearance half-life from kidney, LK, second component (kidneys of Balb/c mice [2]; invasive imaging, FIG. 23): 28.0 min; clearance half-life from kidney, RK, first component (kidneys of Balb/c mice [2]; invasive imaging, FIG. 23): 4.7 min; clearance half-life from kidney, RK, second component (kidneys of Balb/c mice [2]; invasive imaging, FIG. 23): 18.9 min; fraction of first clearance component, LK (kidneys of Balb/c mice [2]; invasive imaging, FIG. 23): 50.1%; fraction of first clearance component, RK (kidneys of Balb/c mice [2]; invasive imaging, FIG. 23): 46.0%; fraction of second clearance component, LK (kidneys of Balb/c mice [2]; invasive imaging, FIG. 23): 49.9%; fraction of second clearance component, RK (kidneys of Balb/c mice [2]; invasive imaging, FIG. 23): 54.0%; time-dependent intensity curves in sham vs UUO mice (kidneys of UUO mice; LK, RK and skin, FIGS. 56-57): very similar profiles of time-dependent intensity curve in sham and UUO mice; visibility of kidneys in UUO mouse (kidneys of UUO mice; noninvasive imaging, UUO mouse): both UUO LK and RK disappeared after 5 min p.i. |
| 18.1 | 81.9 | 0.2 | 2.8 | – | 1.5 | – | CCN1C(=CC=CC2=[N+](CCCCCC(=O)O)c3ccc(S(=O)(=O)O)cc3C2(C)C)C(C)(C)c2cc(S(=O)(=O)[O-])ccc21 [Cy3, disulfo-Cy3 carboxylic acid] | – | can be excreted into urine through renal clearance | 56.5 min | contrast enhancement of noninvasively imaged mouse kidney (kidneys of Balb/c mice [1]; intact mouse, Ex/Em 550/600 nm): failed to enhance contrast |
